# Measurements: patent US7732429B2 (Trustees of Tufts College, priority 1994, dated 2010)
# What was measured:
# efflux protein = biological target: T1, efflux protein (Escherichia coli, UniProt P02980); experiment: everted membrane vesicle assay, blocking activity of 13-S-derivatives; format: biochemical; conditions: blocking activity against the efflux protein, everted membrane vesicle assay
# T1 sequence (P02980 1-401): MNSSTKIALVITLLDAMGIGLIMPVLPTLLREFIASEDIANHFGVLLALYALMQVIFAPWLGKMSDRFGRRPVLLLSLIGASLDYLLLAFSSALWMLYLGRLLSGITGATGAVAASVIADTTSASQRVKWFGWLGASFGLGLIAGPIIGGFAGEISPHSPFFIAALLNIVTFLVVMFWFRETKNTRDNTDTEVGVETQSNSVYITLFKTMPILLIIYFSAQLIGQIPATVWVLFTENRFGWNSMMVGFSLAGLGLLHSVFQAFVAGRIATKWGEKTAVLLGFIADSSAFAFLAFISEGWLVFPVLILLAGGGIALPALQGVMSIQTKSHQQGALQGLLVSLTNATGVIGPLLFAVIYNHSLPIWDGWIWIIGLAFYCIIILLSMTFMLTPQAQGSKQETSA
# E. faecalis 211 (Tet M) = experiment: MIC/MLC chart, analog with and without doxycycline; format: cell-based
# E. faecalis 158 (Tet L) = experiment: MIC/MLC chart, analog with and without doxycycline; format: cell-based
# E. coli DI-299 (Tet A) = experiment: MIC/MLC chart, analog with and without doxycycline; format: cell-based; set-up: key to growth/killing, Analog + Doxy / growth/killing, Doxy Control / growth/killing, Analog Control / growth in MIC/MLC chart: +=growth; 0=no growth (MIC); ↓=killing; ? =99.9% killing (MLC); □=no growth, but no microbiologic testing;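 also: bacterial growth inhibition and killing in broth, each agent tested alone or combined with doxycycline across two-fold serial dilutions, overnight incubation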
# S. aureus 4250 (Tet K) = experiment: MIC/MLC chart, analog with and without doxycycline; format: cell-based
# [1] = tested on: E. coli Class A Tc^r (DI-299); format: cell-based; conditions: drug alone; for MLC: kills 99.9%
# [2] = tested on: E. coli Tc^s (MI 308-226); experiment: susceptibility testing MIC/MLC, drug alone; format: cell-based; conditions: Tc^s (MI 308-226), drug alone; for MLC: kills 99.9%
# [3] = tested on: E. faecalis Tc^r(M) (ATCC09790r/TelM); format: cell-based; conditions: drug alone
# [4] = tested on: E. faecalis Tc^s (ATCC9790r); experiment: susceptibility testing MIC/MLC, drug alone; format: cell-based
# [5] = tested on: E. faecalis Tc^r (L) ATCC9790r/Tell.); experiment: susceptibility testing MIC/MLC, drug alone; format: cell-based; conditions: Tc^r (L) ATCC9790r/Tell.), drug alone
# [6] = tested on: E. coli Class B Tc^r (DI-209); format: cell-based; conditions: drug alone; for MLC: kills 99.9%
# [7] = Analog Control: analog alone 1.56 μg/ml
# [8] = Analog Control: analog alone .195 μg/ml
# [9] = Analog Control: analog alone .39 μg/ml
# [10] = Analog Control: analog alone .78 μg/ml
# [11] = analog 1.56 μg/ml + doxycycline 1.55 μg/ml
# [12] = analog 1.56 μg/ml + doxycycline 3.1 μg/ml
# [13] = analog 1.56 μg/ml + doxycycline 6.2 μg/ml
# [14] = analog .195 μg/ml + doxycycline 1.56 μg/ml
# [15] = analog .195 μg/ml + doxycycline 3.12 μg/ml
# [16] = analog .195 μg/ml + doxycycline 6.25 μg/ml
# [17] = analog .195 μg/ml + doxycycline 12.5 μg/ml
# [18] = analog .39 μg/ml + doxycycline 1.56 μg/ml
# [19] = analog .39 μg/ml + doxycycline 3.12 μg/ml
# [20] = analog .39 μg/ml + doxycycline 6.25 μg/ml
# [21] = analog .39 μg/ml + doxycycline 12.5 μg/ml
# [22] = analog .78 μg/ml + doxycycline 1.56 μg/ml
# [23] = analog .78 μg/ml + doxycycline 3.12 μg/ml
# [24] = analog .78 μg/ml + doxycycline 6.23 μg/ml
smiles,measurement,setting,value
CCCCSCC1c2cccc(O)c2C(=O)C2=C(O)C3(O)C(=O)C(C(N)=O)=C(O)C(N(C)C)C3C(O)C21 (centres unmarked) [Butyl],Ki,efflux protein,0.5 mg/L
CCCSCC1c2cccc(O)c2C(=O)C2=C(O)C3(O)C(=O)C(C(N)=O)=C(O)C(N(C)C)C3C(OC(=O)CC)C21 (centres unmarked) [Cmpd 13-propyl-thio-5-proprionate],growth in MIC/MLC chart,E. faecalis 211 (Tet M); [7],+
same,growth in MIC/MLC chart,E. faecalis 211 (Tet M); [8],+
same,growth in MIC/MLC chart,E. faecalis 211 (Tet M); [9],+
same,growth in MIC/MLC chart,E. faecalis 211 (Tet M); [10],+
same,growth in MIC/MLC chart,E. faecalis 211 (Tet M); [11],+
same,growth in MIC/MLC chart,E. faecalis 211 (Tet M); [12],+
same,growth in MIC/MLC chart,E. faecalis 211 (Tet M); [13],+
same,growth in MIC/MLC chart,E. faecalis 211 (Tet M); [14],+
same,growth in MIC/MLC chart,E. faecalis 211 (Tet M); [15],+
same,growth in MIC/MLC chart,E. faecalis 211 (Tet M); [16],+
same,growth in MIC/MLC chart,E. faecalis 211 (Tet M); [17],+
same,growth in MIC/MLC chart,E. faecalis 211 (Tet M); [18],+
same,growth in MIC/MLC chart,E. faecalis 211 (Tet M); [19],+
same,growth in MIC/MLC chart,E. faecalis 211 (Tet M); [20],+
same,growth in MIC/MLC chart,E. faecalis 211 (Tet M); [21],+
same,growth in MIC/MLC chart,E. faecalis 211 (Tet M); [22],+
same,growth in MIC/MLC chart,E. faecalis 211 (Tet M); [23],+
same,growth in MIC/MLC chart,E. faecalis 211 (Tet M); [24],+
same,growth in MIC/MLC chart,E. faecalis 158 (Tet L); [8],+
same,growth in MIC/MLC chart,E. faecalis 158 (Tet L); [9],+
same,growth in MIC/MLC chart,E. faecalis 158 (Tet L); [10],+
same,growth in MIC/MLC chart,E. faecalis 158 (Tet L); [14],+
same,growth in MIC/MLC chart,E. faecalis 158 (Tet L); [15],+
same,growth in MIC/MLC chart,E. coli DI-299 (Tet A); [7],+
same,growth in MIC/MLC chart,E. coli DI-299 (Tet A); Analog Control: analog alone 3.12 μg/ml,+
same,growth in MIC/MLC chart,E. coli DI-299 (Tet A); Analog Control: analog alone 6.25 μg/ml,+
same,growth in MIC/MLC chart,E. coli DI-299 (Tet A); Analog Control: analog alone 12.5 μg/ml,+
same,growth in MIC/MLC chart,E. coli DI-299 (Tet A); Analog Control: analog alone 25.0 μg/ml,+
same,growth in MIC/MLC chart,E. coli DI-299 (Tet A); Analog Control: analog alone 50.00 μg/ml,+
same,growth in MIC/MLC chart,E. coli DI-299 (Tet A); [8],+
same,growth in MIC/MLC chart,E. coli DI-299 (Tet A); [9],+
same,growth in MIC/MLC chart,E. coli DI-299 (Tet A); [10],+
same,growth in MIC/MLC chart,E. coli DI-299 (Tet A); [11],+
same,growth in MIC/MLC chart,E. coli DI-299 (Tet A); [12],+
same,growth in MIC/MLC chart,E. coli DI-299 (Tet A); [13],+
same,growth in MIC/MLC chart,E. coli DI-299 (Tet A); analog 3.12 μg/ml + doxycycline 1.53 μg/ml,+
same,growth in MIC/MLC chart,E. coli DI-299 (Tet A); analog 3.12 μg/ml + doxycycline 3.05 μg/ml,+
same,growth in MIC/MLC chart,E. coli DI-299 (Tet A); analog 3.12 μg/ml + doxycycline 6.1 μg/ml,+
same,growth in MIC/MLC chart,E. coli DI-299 (Tet A); analog 6.25 μg/ml + doxycycline 3.0 μg/ml,+
same,growth in MIC/MLC chart,E. coli DI-299 (Tet A); analog 6.25 μg/ml + doxycycline 5.9 μg/ml,+
same,growth in MIC/MLC chart,E. coli DI-299 (Tet A); analog 6.25 μg/ml + doxycycline […],+
same,growth in MIC/MLC chart,E. coli DI-299 (Tet A); analog 12.5 μg/ml + doxycycline 2.8 μg/ml,+
same,growth in MIC/MLC chart,E. coli DI-299 (Tet A); analog 12.5 μg/ml + doxycycline 5.5 μg/ml,+
same,growth in MIC/MLC chart,E. coli DI-299 (Tet A); analog 12.5 μg/ml + doxycycline […],+
same,growth in MIC/MLC chart,E. coli DI-299 (Tet A); analog 25 μg/ml + doxycycline 2.4 μg/ml,+
same,growth in MIC/MLC chart,E. coli DI-299 (Tet A); analog 25 μg/ml + doxycycline 4.7 μg/ml,+
same,growth in MIC/MLC chart,E. coli DI-299 (Tet A); analog 25 μg/ml + doxycycline […],+
same,growth in MIC/MLC chart,E. coli DI-299 (Tet A); analog 50 μg/ml + doxycycline 1.56 μg/ml,+
same,growth in MIC/MLC chart,E. coli DI-299 (Tet A); analog 50 μg/ml + doxycycline 3.12 μg/ml,+
same,growth in MIC/MLC chart,E. coli DI-299 (Tet A); analog 50 μg/ml + doxycycline .78 μg/ml,+
same,growth in MIC/MLC chart,E. coli DI-299 (Tet A); [14],+
same,growth in MIC/MLC chart,E. coli DI-299 (Tet A); [15],+
same,growth in MIC/MLC chart,E. coli DI-299 (Tet A); [16],+
same,growth in MIC/MLC chart,E. coli DI-299 (Tet A); [17],+
same,growth in MIC/MLC chart,E. coli DI-299 (Tet A); [18],+
same,growth in MIC/MLC chart,E. coli DI-299 (Tet A); [19],+
same,growth in MIC/MLC chart,E. coli DI-299 (Tet A); [20],+
same,growth in MIC/MLC chart,E. coli DI-299 (Tet A); [21],+
same,growth in MIC/MLC chart,E. coli DI-299 (Tet A); [22],+
same,growth in MIC/MLC chart,E. coli DI-299 (Tet A); [23],+
same,growth in MIC/MLC chart,E. coli DI-299 (Tet A); [24],+
same,growth in MIC/MLC chart,E. coli DI-299 (Tet A); analog .78 μg/ml + doxycycline 12.4 μg/ml,+
same,growth in MIC/MLC chart,S. aureus 4250 (Tet K); [8],+
same,growth in MIC/MLC chart,S. aureus 4250 (Tet K); [14],+
"CN(C)c1ccc(O)c2c1C[C@H]1C[C@H]3[C@H](N(C)C)C(=O)C(C(N)=O)=C(O)[C@@]3(O)C(=O)C1=C2O [Minocycline, reference compound]",MIC,[1],<4 µg
same,MLC,[1],20 µg
same,MIC,[2],<4 µg
same,MLC,[2],<4 µg
same,MIC,[3],10 µg
same,MIC,[4],<0.25 µg
same,MIC,[5],<0.25 µg
same,MIC,[6],6 ± 2 µg
same,MLC,[6],30 ± 10 µg
CN(C)C1C(O)=C(C(N)=O)C(=O)C2(O)C(O)=C3C(=O)c4c(O)cccc4C(CSC(C)(C)C)C3C(O)C12 (centres unmarked) [t-Butyl],Ki,efflux protein,0.3 mg/L
CCCCCCSCC1c2cccc(O)c2C(=O)C2=C(O)C3(O)C(=O)C(C(N)=O)=C(O)C(N(C)C)C3C(O)C21 (centres unmarked) [Hexyl],Ki,efflux protein,5.53 µM
"CN(C)C1C(O)=C(C(N)=O)C(=O)C2(O)C(O)=C3C(=O)c4c(O)cccc4C(C)(O)C3CC12 (centres unmarked) [Tetracycline, 4-(Dimethylamino)-1,4,4a,5,5a,6-11,12a-octahydro-3,6,10,12,12a-pentahydroxy-6-methyl-1-11-dioxo-2-naphthacenecarboxamide, reference compound]",MIC,[1],150 ± 0.25 µg
same,MLC,[1],200 µg
same,Ki,efflux protein,9 to 18 µM
same,MIC,[2],0.6 ± 0.26 µg
same,MLC,[2],40 ± 0.26 µg
same,MIC,[3],100 µg
same,MIC,[4],0.25 µg
same,MIC,[5],90 ± 10 µg
same,MIC,[6],>200 µg
same,MLC,[6],>200 µg
